Results as given in patent US20140057877A1, “Therapeutic polyamine compositions and their synthesis” (priority 2002, published 2014).
Where “and” joins values, the source holds several entries; their conditions need not be identical. Equal values may be shown once. Read-outs that look alike come from different tables or passages of the source.

Tests used:
[1] = Oil water partition coefficients (octanol/water, HPLC); assay type: physicochemical; details: 1:1 octanol/water, shaken 12 hours, HPLC
Protocol: Partition coefficients were determined by dissolving the compound in a 1:1 mixture of octanol/water and shaking the solution for 12 hours. HPLC was used to determine the partition coefficient. The reported values are the log of the octanol/water partition

M. Luteus (ATCC 499732) = test: Bacterial survival, toxin diazoxide and antidotes
Protocol: (§2) Bacteria were inoculated and cultured in nutrient agar for eighteen hours, using a shaking incubator at 140 r.p.m and 35° C. Medium contained 10 mM HEPES buffer at pH 7. Cells were centrifuged twice in Sorval RC-5 centrifuge 12,000 r.pm.×15 minutes at 4° C. and washed twice in 10 uM HEPES buffer. The resuspended cells were counted using a Hemocrit and diluted to a level of 5×10^1 cells per ml in 10 μM HEPES. The cells, the following toxins; methyl viologen (paraquat), methyl viologen (MPP^+), rotenone, daizoxide, streptozotocin and alloxan, and antidotes were added, reaching final volumes of 1 ml in Eppendorf tubes and placed on a rotator at room temperature. 10 μM diethylenetriaminepentaacetic acid was added to the samples to terminate the reactions at the specified times of either twenty or sixty minutes. 300 μL of cells were plated on Petri plates containing nutrient agar and incubated at 35° C. overnight. Colonies were counted after 20 hours. Percentage survival as compared with culture controls is calculated from the means of triplicates in each experimental group.

[2] = test system: E. coli (GM 7359) alkA tag E. coli mutant; details: 60 minutes
Protocol: as §2

[3] = test system: E. coli (GM 7359) alkA tag E. coli mutant; test: Bacterial survival, toxin streptozotocin and antidotes; details: 60 minutes
Protocol: as §2

S. aureus (ATCC 29213) [4] = test: Bacterial survival, toxin MPP^+ and antidotes; details: 60 minutes
Protocol: as §2

[5] = test system: E. coli (GM 7359) alkA tag E. coli mutant; details: 60 minutes; remark: listed apart in the source
Protocol: as §2

[6] = pKa by potentiometric titration; assay type: physicochemical; details: aqueous solution, ionic strength 0.10, 25° C.
Protocol: PKa's were determined by standard potentiometric titration methods in aqueous solution with an ionic strength of 0.10 at 25° C. Values are reported as log K values of the equilibrium constant.

S. aureus (ATCC 29213) [7] = test: Bacterial survival, toxin diazoxide and antidotes; assay type: cell-based; details: 60 minutes
Protocol: (§1) Medium contained 10 mM HEPES buffer at pH 7. […] Colonies were counted after 20 hours.

E. coli (ATCC 35150) = assay type: cell-based
Protocol: as §1

[8] = 0.2 mM Diazoxide + 12.5 uM antidote, T60
[9] = 0.2 mM Diazoxide + 50 uM antidote, T20
[10] = 0.2 mM Diazoxide + 100 uM antidote, T60
[11] = substance alone 100 uM, T20 (20 minutes)
[12] = substance alone 100 uM, T60 (60 minutes)
[13] = 100 uM Rotenone + 2.5 uM antidote
[14] = 100 uM Rotenone + 5 uM antidote
[15] = 100 uM Streptozotocin + 5 uM antidote
[16] = 0.2 mM Diazoxide + 200 uM antidote, T60
[17] = substance alone 200 uM, T20 (20 minutes)
[18] = substance alone 200 uM, T60 (60 minutes)
[19] = 0.2 mM Diazoxide + 1 uM antidote, T20
[20] = 0.2 mM Diazoxide + 1 uM antidote, T60
[21] = 0.2 mM Diazoxide + 2.5 uM antidote, T20
[22] = 0.2 mM Diazoxide + 2.5 uM antidote, T60
[23] = 0.15 mM Diazoxide + 5 uM antidote
[24] = 0.2 mM Diazoxide + 5 uM antidote, T60
[25] = 0.2 mM Diazoxide + 10 uM antidote, T60

1,4,8,11-tetraaza-1,4,8,11-tetra(2-piperidylethyl)cyclotetradecane [cyclam-piperidine]
Log Partition Coefficient Octanol:Water [1]: 0.7

1,4,8,11-tetraaza-1,4,8,11-tetrabicyclo[3.3.1]non-3-ylcyclotetradecane [Cyclam Adamantane]
Mean % Survival (M. Luteus (ATCC 499732); 0.2 mM Diazoxide + 12.5 uM antidote, T20): 100%
Mean % Survival (M. Luteus (ATCC 499732); [8]): 100%
Mean % Survival (M. Luteus (ATCC 499732); [9]): 100%
Mean % Survival (M. Luteus (ATCC 499732); 0.2 mM Diazoxide + 100 uM antidote, T20): 100%
Mean % Survival (M. Luteus (ATCC 499732); [10]): 100%
Mean % Survival (M. Luteus (ATCC 499732); [11]): 100%
Mean % Survival (M. Luteus (ATCC 499732); [12]): 100%
Mean % Survival [2, 13]: 97%
Mean % Survival [2, 14]: 89%
Mean % Survival ([2]; 100 uM Rotenone + 12.5 uM antidote): 100%
Mean % Survival ([2]; substance alone 25 uM): 100%
Mean % Survival ([3]; 100 uM Streptozotocin + 1 uM antidote): 93%
Mean % Survival [3, 15]: 100%
Mean % Survival ([3]; 100 uM Streptozotocin + 12.5 uM antidote): 100%
Mean % Survival ([3]; substance alone 12.5 uM): 100%
Mean % Survival (S. aureus (ATCC 29213) [4]; 0.2 mM MPP^+ + 1 uM antidote): 100%
Mean % Survival (S. aureus (ATCC 29213) [4]; 0.2 mM MPP^+ + 2.5 uM antidote): 100%
Mean % Survival (S. aureus (ATCC 29213) [4]; 0.2 mM MPP^+ + 5.0 uM antidote): 100%
Mean % Survival (S. aureus (ATCC 29213) [4]; 0.2 mM MPP^+ + 7.5 uM antidote): 100%
Mean % Survival (S. aureus (ATCC 29213) [4]; substance alone 30 uM): 100%
Mean % Survival ([5]; 2 mM Alloxan + 2.5 uM antidote): 100%
Mean % Survival ([5]; 2 mM Alloxan + 10 uM antidote): 100%
Mean % Survival ([5]; substance alone 10 uM): 100%

CNCCNCCCNCCNC [2,3,2-methylated on N1/N4, N,N′″-dimethyl 2,3,2-tetramine]
Log Partition Coefficient Octanol:Water [1]: 0.4

NCCSCCCSCCN [2,3,2-sulfur, 2-[3-(2-aminoethylthio)propylthio]ethylamine]
Mean % Survival (M. Luteus (ATCC 499732); [8]): 32%
Mean % Survival (M. Luteus (ATCC 499732); [10]): 67%
Mean % Survival (M. Luteus (ATCC 499732); [11]): 100%
Mean % Survival (M. Luteus (ATCC 499732); [12]): 100%

CNCCN(C)CCCN(C)CCNC [2,3,2-tetramethyl, N,N′,N″,N′″-tetramethyl 2,3,2-tetramine]
pKa(1) [6]: 10.2
pKa(2) [6]: 9.4
pKa(3) [6]: 6.1
pKa(4) [6]: 2.9

O=C1NC(=O)C(=O)C(=O)N1 [Alloxan, reference compound]
Mean % Survival ([5]; substance alone 2 mM): 20%

CC1=NS(=O)(=O)c2cc(Cl)ccc2N1 [Diazoxide, reference compound]
Mean % Survival (M. Luteus (ATCC 499732); substance alone 0.2 mM, T20 (20 minutes)): 22%
Mean % Survival (M. Luteus (ATCC 499732); substance alone 0.2 mM, T60 (60 minutes)): 1%
Mean % Survival (S. aureus (ATCC 29213) [7]; substance alone 0.15 mM): 25%

N[C@@H](Cc1c[nH]cn1)C(=O)O [Histidine, reference compound]
Mean % Survival (M. Luteus (ATCC 499732); [16]): 54%
Mean % Survival (M. Luteus (ATCC 499732); [17]): 100%
Mean % Survival (M. Luteus (ATCC 499732); [18]): 100%
Mean % Survival (E. coli (ATCC 35150)): 30%
Mean % Survival (E. coli (ATCC 35150); 0.5 mM Paraquat + 1.0 mM antidote, 60 minutes): 37%
Mean % Survival (E. coli (ATCC 35150); substance alone 0.5 mM, 60 minutes): 100%
Mean % Survival (E. coli (ATCC 35150); substance alone 1 mM, 60 minutes): 100%
Mean % Survival (S. aureus (ATCC 29213) [4]; 0.15 mM MPP^+ + 0.5 mM antidote): 64%
Mean % Survival (S. aureus (ATCC 29213) [4]; substance alone 0.5 mM): 90%
Mean % Survival (S. aureus (ATCC 29213) [7]; 0.15 mM Diazoxide + 500 uM antidote): 58%
Mean % Survival (S. aureus (ATCC 29213) [7]; substance alone 0.5 mM): 100%

C[n+]1ccc(-c2ccccc2)cc1 [MPP^+, reference compound]
Mean % Survival (S. aureus (ATCC 29213) [4]; substance alone 0.1 mM): 31%
Mean % Survival (S. aureus (ATCC 29213) [4]; substance alone 0.15 mM): 15%
Mean % Survival (S. aureus (ATCC 29213) [4]; substance alone 0.2 mM): 6%
Mean % Survival (S. aureus (ATCC 29213) [4]; substance alone 0.25 mM): 3%

C=C(C)[C@H]1Cc2c(ccc3c2O[C@@H]2COc4cc(OC)c(OC)cc4[C@@H]2C3=O)O1 [Rotenone, reference compound]
Mean % Survival ([2]; substance alone 100 uM): 60%

NCCCCNCCCN [Spermidine, reference compound]
Mean % Survival (M. Luteus (ATCC 499732); [19]): 100%
Mean % Survival (M. Luteus (ATCC 499732); [20]): 96%
Mean % Survival (M. Luteus (ATCC 499732); [21]): 100%
Mean % Survival (M. Luteus (ATCC 499732); [22]): 100%
Mean % Survival (M. Luteus (ATCC 499732); 0.2 mM Diazoxide + 200 uM antidote, T20): 100%
Mean % Survival (M. Luteus (ATCC 499732); [17]): 100%
Mean % Survival (M. Luteus (ATCC 499732); [18]): 100%
Mean % Survival [3, 15]: 87%
Mean % Survival ([3]; substance alone 5 uM): 97%

NCCCNCCCCNCCCN [Spermine]
Mean % Survival (E. coli (ATCC 35150)): 100% and 96% and 60%
Mean % Survival (S. aureus (ATCC 29213) [7]; [23]): 71%
Mean % Survival (S. aureus (ATCC 29213) [7]; substance alone 5 uM): 99%

CN(N=O)C(=O)N[C@H]1C(O)O[C@H](CO)[C@@H](O)[C@@H]1O (stereo partly drawn) [Streptozotocin, N-(methylnitrosocarbamoyl)-Dglucosamine, reference compound]
Mean % Survival ([3]; substance alone 100 uM): 57%

CN1CCCN(C)CCN(C)CCCN(C)CC1 [cyclam-methylated, 1,4,8,11-tetraaza-1,4,8,11-tetramethylcyclotetradecane]
pKa ([6]; read-out: pKa(1)): 9.7
pKa ([6]; read-out: pKa(2)): 9.3
pKa ([6]; read-out: pKa(3)): 3.1
pKa ([6]; read-out: pKa(4)): 2.6

(2-piperidylethyl)-{3-[(2-piperidylethyl)amino]propyl}amine [2,3,2-piperidine]
Mean % Survival (M. Luteus (ATCC 499732); [19]): 81%
Mean % Survival (M. Luteus (ATCC 499732); [21]): 81%
Mean % Survival (M. Luteus (ATCC 499732); [22]): 41%
Mean % Survival (M. Luteus (ATCC 499732); 0.2 mM Diazoxide + 5 uM antidote, T20): 100%
Mean % Survival (M. Luteus (ATCC 499732); [24]): 100%
Mean % Survival (M. Luteus (ATCC 499732); 0.2 mM Diazoxide + 10 uM antidote, T20): 100%
Mean % Survival (M. Luteus (ATCC 499732); [25]): 100%
Mean % Survival (M. Luteus (ATCC 499732); 0.2 mM Diazoxide + 20 uM antidote, T20): 100%
Mean % Survival (M. Luteus (ATCC 499732); 0.2 mM Diazoxide + 20 uM antidote, T60): 100%
Mean % Survival (M. Luteus (ATCC 499732); [9]): 100%
Mean % Survival (M. Luteus (ATCC 499732); substance alone 50 uM, T20 (20 minutes)): 100%
Mean % Survival (M. Luteus (ATCC 499732); substance alone 50 uM, T60 (60 minutes)): 100%
Mean % Survival [2, 13]: 100%
Mean % Survival [2, 14]: 100%
Mean % Survival ([2]; 100 uM Rotenone + 20 uM antidote): 100%
Mean % Survival ([2]; 100 uM Rotenone + 50 uM antidote): 100%
Mean % Survival ([2]; substance alone 50 uM): 100%
Mean % Survival ([3]; 100 uM Streptozotocin + 2.5 uM antidote): 70%
Mean % Survival [3, 15]: 100%
Mean % Survival ([3]; 100 uM Streptozotocin + 20 uM antidote): 100%
Mean % Survival ([3]; substance alone 20 uM): 100%
Mean % Survival (S. aureus (ATCC 29213) [4]; 0.25 mM MPP^+ + 1uM antidote): 54%
Mean % Survival (S. aureus (ATCC 29213) [4]; 0.25 mM MPP^+ + 2uM antidote): 54%
Mean % Survival (S. aureus (ATCC 29213) [4]; 0.25 mM MPP^+ + 5uM antidote): 69%
Mean % Survival (S. aureus (ATCC 29213) [4]; 0.25 mM MPP^+ + 7uM antidote): 100%
Mean % Survival (S. aureus (ATCC 29213) [4]; substance alone 7.5 uM): 100%
Mean % Survival (S. aureus (ATCC 29213) [7]; 0.15 mM Diazoxide + 2.5 uM antidote): 100%
Mean % Survival (S. aureus (ATCC 29213) [7]; [23]): 91%
Mean % Survival (S. aureus (ATCC 29213) [7]; 0.15 mM Diazoxide + 10 uM antidote): 92%
Mean % Survival (S. aureus (ATCC 29213) [7]; substance alone 10 uM): 100%
pKa(1) [6]: 9.9
pKa(2) [6]: 9.3
pKa(3) [6]: 6.4
pKa(4) [6]: 3.6

Vanadyl (1,4,8,11-tetraaza-1,4,8,11-tetrabicyclo[3.3.1]non-3-ylcyclotetradecane)(Cl)2 [Vanadium Cyclam Adamantane]
Mean % Survival (M. Luteus (ATCC 499732); [20]): 100%
Mean % Survival (M. Luteus (ATCC 499732); [24]): 100%
Mean % Survival (M. Luteus (ATCC 499732); [25]): 100%
Mean % Survival (M. Luteus (ATCC 499732); 0.2 mM Diazoxide + 50 uM antidote, T60): 100%
Mean % Survival (M. Luteus (ATCC 499732); [16]): 100%
Mean % Survival (M. Luteus (ATCC 499732); [17]): 100%
Mean % Survival (M. Luteus (ATCC 499732); [18]): 100%

[2-(bicyclo[3.3.1]non-3-ylamino)ethyl](3-{2-(bicyclo[3.3.1]non-3-ylamino)ethyl]amino}propyl)amine [2,3,2-tetramine adamantane]
Mean % Survival ([5]; 2 mM Alloxan + 1 uM antidote): 51%
Mean % Survival ([5]; 2 mM Alloxan + 100 uM antidote): 69%
Mean % Survival ([5]; substance alone 100 uM): 100%
